{"source": "patent US20150011566A1", "about": "“N-PHENYLPIPERAZINE DERIVATIVES THAT ARE ANTAGONISTS OF A1A, A1D ADRENOCEPTORS AND 5-HT1A RECEPTORS FOR THE TREATMENT OF BENIGN PROSTATE HYPERPLASIA, PHARMACEUTICAL COMPOSITIONS CONTAINING THE SAME” (UNIVERSIDADE FEDERAL DO RIO DE JANEIRO-UFRJ, priority 2012, published 2015)", "key": {"[1]": {"target": "T1, 5-HT1A receptors (Homo sapiens, UniProt P08908)", "T1 construct": "endogenous in cells; host or cells: DU-145", "T1 sequence (P08908 1-422)": "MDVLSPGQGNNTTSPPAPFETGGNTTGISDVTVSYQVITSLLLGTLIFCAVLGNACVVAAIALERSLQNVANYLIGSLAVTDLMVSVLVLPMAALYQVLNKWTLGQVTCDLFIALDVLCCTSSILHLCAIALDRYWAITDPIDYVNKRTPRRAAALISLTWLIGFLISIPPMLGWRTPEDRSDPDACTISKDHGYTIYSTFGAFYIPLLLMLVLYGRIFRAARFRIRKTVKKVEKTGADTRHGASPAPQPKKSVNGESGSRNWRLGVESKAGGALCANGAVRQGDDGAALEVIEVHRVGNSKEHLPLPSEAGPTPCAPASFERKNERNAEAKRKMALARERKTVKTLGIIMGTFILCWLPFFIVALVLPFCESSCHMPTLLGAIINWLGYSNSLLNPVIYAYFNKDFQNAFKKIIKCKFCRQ", "experiment": "Cell proliferation in vitro, DU-145 cells stimulated with 5-HT (MTT)", "type": "cell-based", "conditions": "48 h", "experimental": "(§1) Human prostate cancer cells (DU-145) were cultured in medium (RPMI 1640) until confluence. Then the cells were dissociated, plated (5×10^3 cells/well) and maintained in medium free of fetal bovine serum for 24 hours. […] Cell proliferation was assessed by using the MTT technique (MOSMANN, T. Immunol Methods. 16; 65 (1-2):55-63, 1983)."}, "[2]": {"target": "T2, 5-HT1A receptors (Rattus norvegicus, UniProt P19327)", "T2 construct": "Intrinsic Activity at Native 5-HT1A Receptors; from tissue; host or cells: rat hippocampus membranes", "T2 sequence (P19327 1-422)": "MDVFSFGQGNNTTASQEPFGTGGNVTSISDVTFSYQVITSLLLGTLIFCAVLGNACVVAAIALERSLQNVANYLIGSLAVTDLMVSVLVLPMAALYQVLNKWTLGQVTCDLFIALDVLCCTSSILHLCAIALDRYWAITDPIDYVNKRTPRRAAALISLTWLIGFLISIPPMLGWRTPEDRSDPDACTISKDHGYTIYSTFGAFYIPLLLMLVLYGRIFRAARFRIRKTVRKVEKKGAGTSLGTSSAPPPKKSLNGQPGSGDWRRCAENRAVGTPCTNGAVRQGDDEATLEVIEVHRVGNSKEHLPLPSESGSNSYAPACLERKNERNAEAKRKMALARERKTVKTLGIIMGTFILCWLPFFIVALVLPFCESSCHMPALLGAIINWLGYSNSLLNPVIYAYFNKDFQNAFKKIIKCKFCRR", "experiment": "Binding of [3H]p-MPPF with GTP to 5-HT1A receptors; intrinsic activity (Ki low/Ki high)", "conditions": "Table 13; from Ki low/Ki high", "experimental": "Membrane preparations of rat hippocampus according to previously described by HALL et al (1985) and PEROUTKA (1986) were performed. The homogenization and centrifugation steps were performed identically to that described above for receptors α2A and 5-HT2A receptors.\nThe binding assays for the 5-HT1A receptors were performed as described previously in the literature and previously standardized in the laboratory through saturation experiments. […] (solvent for dilution of LDT's) for the determination of total binding, or 50 μL non-radioative serotonin at 10 μM to determine the non-specific binding (final volume of 500 μL). Assays were performed in triplicate. […] Assays were performed in triplicate.\nAfter the incubation period, the reaction was stopped by adding 4 ml of ice-cold solution containing 5 mM Tris (pH 7.4), followed by vacuum filtration on glass fiber filter (GMF 3, Filtrak®) previously soaked with solution 0.5% polyethylenoimine. The filters were washed three times with 4 mL of ice-cold solution containing 5 mM Tris (pH 7.4) under vacuum to remove all free radioligand. Then the filters were dried and placed in vials containing 5 ml scintillation fluid (composition: 4% PPO, 0.1% POPOP w/p in toluene). The radioactivity retained on the filters was then determined in a liquid scintillation counter (Packard Tri-Carb 1600 TR). […] For these receptors were also determined the […] and Ki parameters.\nThe GTP presence displaces the GPCR to a state of low affinity (Lahti et al, 1992). The intrinsic activity of a substance can be estimated using GPCR agonist or antagonist radioligand appropriate to define the affinity of the substance in the state of high and low affinity receptor, respectively."}, "[3]": {"target": "T3, α1D adrenoceptors (Rattus norvegicus, UniProt P23944)", "T3 construct": "the rat thoracic aorta corresponds to a tissue expressing mainly α1D-adrenoceptors; from tissue; host or cells: rat thoracic aorta rings", "T3 sequence (P23944 1-561)": "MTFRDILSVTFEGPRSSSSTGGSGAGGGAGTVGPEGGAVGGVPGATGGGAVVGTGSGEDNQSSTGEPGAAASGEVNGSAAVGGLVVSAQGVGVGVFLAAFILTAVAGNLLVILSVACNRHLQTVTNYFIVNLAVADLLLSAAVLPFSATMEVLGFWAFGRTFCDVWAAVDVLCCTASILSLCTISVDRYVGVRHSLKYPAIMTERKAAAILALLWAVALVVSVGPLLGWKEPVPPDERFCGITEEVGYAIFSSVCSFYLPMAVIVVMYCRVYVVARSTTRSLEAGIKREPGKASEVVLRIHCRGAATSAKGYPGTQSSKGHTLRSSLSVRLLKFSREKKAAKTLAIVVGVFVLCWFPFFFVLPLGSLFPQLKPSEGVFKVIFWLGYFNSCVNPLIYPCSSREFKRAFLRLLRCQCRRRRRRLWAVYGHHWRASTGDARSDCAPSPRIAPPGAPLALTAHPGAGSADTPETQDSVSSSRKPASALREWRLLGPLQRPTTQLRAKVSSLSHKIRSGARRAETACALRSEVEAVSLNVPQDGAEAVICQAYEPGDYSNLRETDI", "experiment": "Phenylephrine-induced contraction inhibition in rat aorta (isometric contraction, Schild KB)", "type": "cell-based", "conditions": "ratio of EC50 in presence and absence of test substance, 10 nM", "experimental": "Isometric contraction assays were performed using Male Wistar rats, aged 2.5-3 months euthanized as described above. The thoracic aorta (tissue enriched in functional α1D adrenergic receptors) was removed, free from adjacent connective and adipose tissues cut in 3 mm segments. […] The aort segments were then subjected to a preload of 20 mN per 60 minutes. After recovery of tissues maintained for 1 hour at rest, it was performed a contraction induced by phenylephrine (PE) 1 μM (α1 adrenergic receptors selective agonist). In this plateau contraction, in order to promote endothelium-dependent relaxation resulting from the activation of the enzyme endothelial nitric oxide synthase (eNOS) and subsequent release of nitric oxide (NO), acetylcholine 1 μM was added. Rings that relaxed at least 80% were considered to have intact endothelium, were used.\nThen the preparation was washed and allowed to stand for 1 hour in order to recover the tissue. Then it was performed cumulative curves to phenylephrine (10^−9 to 10^−5 M) in the presence of propranolol 1 μM (β-adrenoceptor blocker receptors) before and after incubation for 1 hour of the LDT's at 10 or 50 nM. In parallel, a temporal control was performed to rule out any artifacts on the measured contraction, where was added only the vehicle (ultrapure water Milli Q®) instead of the substance to be tested. Strictly following the same protocol as the other tanks wherein it was added the LDT's.\nThe data were scanned in MacLab 8S system connected to the isometric tension transducer Grass FT-03, which recorded the voltage variation in milinewtons (mN) generated throughout the analysis. The digitized data were then analyzed by Chart 3.4/s software program (MacLab, Inc., USA). In the pharmacological screening process, the initial concentration of the used LDT's was 50 nM, which is considered as cut concentration, i.e., substances that have no effect at this concentration would not investigated in this test. […] The ratio of the EC50 value in these two conditions (with and without LDT) matches the third parameter, called “concentration ratio” (or RC).\nlog(CR−1)=log [B]−log KB (Equation 1)\nWhere CR=concentration ratio (EC′50/EC50); [B]=‘B’ antagonist concentration; KB=equilibrium dissociation constant of the antagonist ‘B’.\nWith this in view, the functional tests of contraction in isolated organ model were performed using these tissues. […] Similarly, targeting to rule out any artifacts on the measured contraction, a time control was performed where only the vehicle was added (ultrapure Mili Q® water) in place of the substance to be tested, strictly following the same protocol as the other vats were added to the LDT's (FIG. 1)."}, "[4]": {"target": "T4, α1D receptors (Homo sapiens, UniProt P25100)", "T4 construct": "endogenous in cells; host or cells: DU-145", "T4 sequence (P25100 1-572)": "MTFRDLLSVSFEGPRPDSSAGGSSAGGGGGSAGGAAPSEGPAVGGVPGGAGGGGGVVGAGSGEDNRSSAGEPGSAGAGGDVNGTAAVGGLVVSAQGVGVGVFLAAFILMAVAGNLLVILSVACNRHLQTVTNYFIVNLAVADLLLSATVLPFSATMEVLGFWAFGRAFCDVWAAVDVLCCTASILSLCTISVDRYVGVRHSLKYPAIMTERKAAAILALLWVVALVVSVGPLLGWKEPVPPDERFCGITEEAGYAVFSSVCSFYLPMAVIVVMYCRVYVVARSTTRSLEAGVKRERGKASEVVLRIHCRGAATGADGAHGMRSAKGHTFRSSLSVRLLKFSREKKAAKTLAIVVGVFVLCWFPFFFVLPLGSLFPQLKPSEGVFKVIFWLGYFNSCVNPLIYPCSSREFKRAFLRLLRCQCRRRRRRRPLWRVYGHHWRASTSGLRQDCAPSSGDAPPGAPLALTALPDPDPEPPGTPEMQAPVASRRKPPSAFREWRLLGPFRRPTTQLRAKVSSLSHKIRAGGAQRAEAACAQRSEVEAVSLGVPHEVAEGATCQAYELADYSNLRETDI", "experiment": "Cell proliferation in vitro, DU-145 cells stimulated with phenylephrine (MTT)", "type": "cell-based", "conditions": "48 h", "experimental": "as §1"}, "[5]": {"target": "T5, α2A receptors (Rattus norvegicus, UniProt P22909)", "T5 construct": "Membrane preparations of rat cortex as described previously in the literature were performed; from tissue; host or cells: rat cortex membranes", "T5 sequence (P22909 1-465)": "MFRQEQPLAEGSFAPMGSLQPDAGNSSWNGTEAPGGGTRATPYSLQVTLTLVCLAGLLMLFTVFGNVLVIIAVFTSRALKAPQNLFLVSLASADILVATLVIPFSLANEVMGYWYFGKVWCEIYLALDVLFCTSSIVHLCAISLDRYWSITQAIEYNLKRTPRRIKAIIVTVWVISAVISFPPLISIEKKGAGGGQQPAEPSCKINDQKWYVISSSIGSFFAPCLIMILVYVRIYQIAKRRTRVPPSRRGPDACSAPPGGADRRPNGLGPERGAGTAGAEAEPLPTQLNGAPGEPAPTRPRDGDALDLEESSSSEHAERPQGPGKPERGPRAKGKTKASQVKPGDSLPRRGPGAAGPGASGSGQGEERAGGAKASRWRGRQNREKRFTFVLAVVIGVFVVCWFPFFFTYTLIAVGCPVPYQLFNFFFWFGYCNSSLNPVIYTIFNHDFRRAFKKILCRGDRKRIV", "experiment": "Binding of [3H]RX821002 to α2A receptors (rat cortex membranes)", "conditions": "saturation assay"}, "[6]": {"test_system": "prostate cells", "conditions": "DIZEYI et al. Prostate 59 (3): 328-336, 2004; cited from earlier work"}}, "note": "Where a name gives a salt, the structure may show the parent alone. Marks after values point to notes of the source that are not given here.", "data": [{"molecule": "Cl.NCCc1c[nH]c2ccc(O)cc12", "note": "[5-HT, 5-hydroxytryptamine hydrochloride]", "values": [{"measurement": "Proliferation percentage in relation to basel (100%), 5-HT1A", "setting": "[1]; DU-145, stimulus alone, 5-HT 1 μM", "result": "137.1 ± 5.2", "unit": "%"}, {"measurement": "pharmacological classification", "setting": "[2]", "result": "full antagonist"}]}, {"molecule": "COc1ccccc1N1CCN(CCN2C(=O)CC3(CCCC3)CC2=O)CC1", "note": "[BMY7378, reference compound]", "values": [{"measurement": "CR ± EPM", "setting": "[3]", "result": "4.4 ± 0.8"}, {"measurement": "Proliferation percentage in relation to basel (100%) in the presence of LDT's, α1D", "setting": "[4]; DU-145, phenylephrine 3 μM + test substance 50 nM", "result": "90.98 ± 11.7^a %"}]}, {"molecule": "CNC[C@H](O)c1cccc(O)c1", "note": "[Phenylephrine, (R)-(−)-phenylephrine hydrochloride, reference compound]", "values": [{"measurement": "Proliferation percentage in relation to basel (100%), α1D", "setting": "[4]; DU-145, stimulus alone, phenylephrine 3 μM", "result": "138.8 ± 2.6", "unit": "%"}]}, {"molecule": "COC1(C2=NCCN2)COc2ccccc2O1", "note": "(centres unmarked) [[3H] RX821002]", "values": [{"measurement": "Kd", "setting": "[5]", "result": "2.05 ± 0.28", "unit": "nM"}]}, {"molecule": "COc1ccccc1N1CCN(CCN(C(=O)c2ccc(F)cc2)c2ccccn2)CC1", "note": "[p-MPPF, reference compound]", "values": [{"measurement": "Proliferation percentage in relation to basel (100%) in the presence of LDT's, 5HT1A", "setting": "[1]; DU-145, 5-HT 1 μM + test substance 50 nM", "result": "88.9 ± 11.5^b %"}]}, {"molecule": "CCOc1ccccc1OCCN[C@H](C)Cc1ccc(OC)c(S(N)(=O)=O)c1", "note": "[tamsulosin]", "values": [{"measurement": "inhibition of cell proliferation", "setting": "[6]", "result": "does not inhibit cell proliferation"}]}]}
